The source of these data is patent publication US10005788B2, “Bicyclic fused pyrimidine compounds as TAM inhibitors” (Incyte Corporation, priority 2015, dated 2018).

A word on the IC50: it is the concentration that inhibits the measured activity by half.

Chain of JAK1 (P23458 whole entry, species assumed): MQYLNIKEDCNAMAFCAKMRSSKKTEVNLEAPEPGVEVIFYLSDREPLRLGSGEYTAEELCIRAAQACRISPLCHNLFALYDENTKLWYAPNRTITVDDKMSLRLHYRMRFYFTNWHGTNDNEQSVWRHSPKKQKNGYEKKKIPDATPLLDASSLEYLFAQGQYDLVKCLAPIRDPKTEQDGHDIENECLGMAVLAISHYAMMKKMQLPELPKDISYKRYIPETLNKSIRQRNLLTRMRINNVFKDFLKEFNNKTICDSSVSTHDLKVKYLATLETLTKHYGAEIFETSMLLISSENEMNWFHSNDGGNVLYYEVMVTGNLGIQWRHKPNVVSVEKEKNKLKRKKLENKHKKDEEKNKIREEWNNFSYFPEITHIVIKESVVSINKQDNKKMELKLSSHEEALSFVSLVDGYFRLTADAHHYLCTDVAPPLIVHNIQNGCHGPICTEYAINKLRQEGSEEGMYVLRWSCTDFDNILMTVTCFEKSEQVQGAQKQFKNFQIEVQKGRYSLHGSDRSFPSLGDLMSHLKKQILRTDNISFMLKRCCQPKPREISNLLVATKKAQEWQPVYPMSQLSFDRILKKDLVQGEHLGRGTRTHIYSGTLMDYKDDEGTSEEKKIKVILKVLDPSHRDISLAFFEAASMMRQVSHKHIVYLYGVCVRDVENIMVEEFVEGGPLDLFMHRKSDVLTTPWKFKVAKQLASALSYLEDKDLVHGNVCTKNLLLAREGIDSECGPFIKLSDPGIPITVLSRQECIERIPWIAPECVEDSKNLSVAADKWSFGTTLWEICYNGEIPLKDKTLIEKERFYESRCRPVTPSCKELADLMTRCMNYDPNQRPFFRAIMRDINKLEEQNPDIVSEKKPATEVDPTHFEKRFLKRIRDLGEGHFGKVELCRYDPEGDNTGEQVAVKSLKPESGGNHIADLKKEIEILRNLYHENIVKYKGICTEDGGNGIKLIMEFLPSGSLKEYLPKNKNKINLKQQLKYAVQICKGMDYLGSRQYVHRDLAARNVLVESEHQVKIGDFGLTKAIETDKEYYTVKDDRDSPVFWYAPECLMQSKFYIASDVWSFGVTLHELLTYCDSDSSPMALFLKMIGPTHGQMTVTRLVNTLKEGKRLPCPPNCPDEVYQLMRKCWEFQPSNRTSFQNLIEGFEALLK
Chain of c-Mer (Q12866 21-999): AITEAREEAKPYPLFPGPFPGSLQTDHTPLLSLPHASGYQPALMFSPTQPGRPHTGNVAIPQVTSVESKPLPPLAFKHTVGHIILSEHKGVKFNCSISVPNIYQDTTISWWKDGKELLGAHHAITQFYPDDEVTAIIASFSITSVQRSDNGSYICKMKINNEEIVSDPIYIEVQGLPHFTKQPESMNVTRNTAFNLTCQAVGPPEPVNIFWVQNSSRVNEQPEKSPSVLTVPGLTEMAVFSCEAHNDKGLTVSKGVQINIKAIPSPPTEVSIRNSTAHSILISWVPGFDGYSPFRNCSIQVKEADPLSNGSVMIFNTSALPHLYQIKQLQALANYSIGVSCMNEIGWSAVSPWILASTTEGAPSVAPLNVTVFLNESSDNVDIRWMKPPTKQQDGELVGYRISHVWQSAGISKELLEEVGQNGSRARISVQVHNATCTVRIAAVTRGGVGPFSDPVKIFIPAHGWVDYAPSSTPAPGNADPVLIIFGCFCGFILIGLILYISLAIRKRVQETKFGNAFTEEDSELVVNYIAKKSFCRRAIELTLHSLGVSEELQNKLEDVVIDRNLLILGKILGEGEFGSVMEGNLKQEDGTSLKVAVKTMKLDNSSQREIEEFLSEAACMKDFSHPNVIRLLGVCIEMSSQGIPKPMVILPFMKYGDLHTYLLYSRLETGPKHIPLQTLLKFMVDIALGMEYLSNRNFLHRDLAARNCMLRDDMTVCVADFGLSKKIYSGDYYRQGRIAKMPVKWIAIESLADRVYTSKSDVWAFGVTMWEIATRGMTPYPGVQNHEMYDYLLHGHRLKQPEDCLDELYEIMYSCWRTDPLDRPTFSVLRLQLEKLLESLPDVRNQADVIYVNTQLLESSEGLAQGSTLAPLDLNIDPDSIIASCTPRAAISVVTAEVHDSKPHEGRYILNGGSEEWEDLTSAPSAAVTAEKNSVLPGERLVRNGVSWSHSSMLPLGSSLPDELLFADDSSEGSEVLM

One assay deals with JAK2 (Homo sapiens (Human), UniProt O60674).
Chain of JAK2 (O60674 whole entry, species assumed): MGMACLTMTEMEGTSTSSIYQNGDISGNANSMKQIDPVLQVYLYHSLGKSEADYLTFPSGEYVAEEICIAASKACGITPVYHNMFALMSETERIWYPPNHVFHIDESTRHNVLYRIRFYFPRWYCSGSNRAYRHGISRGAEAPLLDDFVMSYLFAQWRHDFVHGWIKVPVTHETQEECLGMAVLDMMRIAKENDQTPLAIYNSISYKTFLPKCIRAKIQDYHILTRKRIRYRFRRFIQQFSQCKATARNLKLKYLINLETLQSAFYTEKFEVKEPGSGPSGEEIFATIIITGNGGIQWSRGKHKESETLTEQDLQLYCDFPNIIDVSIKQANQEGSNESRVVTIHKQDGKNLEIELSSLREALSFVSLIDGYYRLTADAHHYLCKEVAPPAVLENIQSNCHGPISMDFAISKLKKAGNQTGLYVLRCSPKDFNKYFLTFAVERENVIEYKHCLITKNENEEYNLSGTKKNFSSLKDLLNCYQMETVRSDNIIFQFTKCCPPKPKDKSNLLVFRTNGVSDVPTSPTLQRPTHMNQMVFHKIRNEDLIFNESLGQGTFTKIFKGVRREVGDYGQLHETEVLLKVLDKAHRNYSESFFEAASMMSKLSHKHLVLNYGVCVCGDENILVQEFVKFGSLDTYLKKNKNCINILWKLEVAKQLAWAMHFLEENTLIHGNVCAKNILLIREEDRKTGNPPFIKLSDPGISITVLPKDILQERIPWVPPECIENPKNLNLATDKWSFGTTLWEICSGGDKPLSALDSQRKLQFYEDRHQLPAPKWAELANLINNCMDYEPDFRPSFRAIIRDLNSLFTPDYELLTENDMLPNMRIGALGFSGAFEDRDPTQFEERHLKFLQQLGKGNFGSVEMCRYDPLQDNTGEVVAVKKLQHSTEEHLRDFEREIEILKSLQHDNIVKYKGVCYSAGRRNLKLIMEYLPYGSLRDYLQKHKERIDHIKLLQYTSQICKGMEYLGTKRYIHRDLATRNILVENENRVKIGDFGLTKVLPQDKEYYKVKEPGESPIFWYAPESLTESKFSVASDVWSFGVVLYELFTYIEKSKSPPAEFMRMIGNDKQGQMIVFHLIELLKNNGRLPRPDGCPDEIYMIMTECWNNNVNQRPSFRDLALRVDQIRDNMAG
Experiment: not given
The note with it: ratio of IC50, 1 mM ATP; cited from earlier work.
As for `CC(C)(O)c1cc(O[C@H]2CC[C@@H](N3CC(CC#N)(n4cc(-c5ncnc6[nH]ccc56)cn4)C3)CC2)nc(C(F)(F)F)c1` [Compound 20, {1-(cis-4-{[4-(1-hydroxy-1-methylethyl)-6-(trifluoromethyl)pyridin-2-yl]oxy}cyclohexyl)-3-[4-(7H-pyrrolo[2,3-d]pyrimidin-4-yl)-1H-pyrazol-1-yl]azetidin-3-yl}acetonitrile], the JAK2/JAK1 is greater than 10.

With `N#CCC1(n2cc(-c3ncnc4[nH]ccc34)cn2)CN(C2CCN(C(=O)c3ccnc(C(F)(F)F)c3F)CC2)C1` [Compound 7, {1-{1-[3-Fluoro-2-(trifluoromethyl)isonicotinoyl]piperidin-4-yl}-3-[4-(7H-pyrrolo[2,3-d]pyrimidin-4-yl)-1H-pyrazol-1-yl]azetidin-3-yl}acetonitrile], the JAK2/JAK1 was greater than 10.

As to `N#CCC1(n2cc(-c3ncnc4[nH]ccc34)cn2)CN([C@H]2CC[C@@H](Oc3cc(CCO)nc(C(F)(F)F)n3)CC2)C1` [Compound 18, {1-(cis-4-{[6-(2-hydroxyethyl)-2-(trifluoromethyl)pyrimidin-4-yl]oxy}cyclohexyl)-3-[4-(7H-pyrrolo[2,3-d]pyrimidin-4-yl)-1H-pyrazol-1-yl]azetidin-3-yl}acetonitrile], the JAK2/JAK1 is recorded as greater than 10.

As to `N#CCC(C1CCN(c2nc3cccnc3o2)C1)n1cc(-c2ncnc3[nH]ccc23)cn1` (centres unmarked) [Compound 4, 3-(1-[1,3]oxazolo[5,4-b]pyridin-2-ylpyrrolidin-3-yl)-3-[4-(7H-pyrrolo[2,3-d]pyrimidin-4-yl)-1H-pyrazol-1-yl]propanenitrile], the JAK2/JAK1 is listed as greater than 10.

On to `C[C@@H](O)CNCc1cc(OC2CCN([C@H]3C[C@](CC#N)(n4cc(-c5ncnc6[nH]ccc56)cn4)C3)CC2)nc(C(F)(F)F)c1` [Compound 24, {trans-3-(4-{[4-({[(2R)-2-hydroxypropyl]amino}methyl)-6-(trifluoromethyl)pyridin-2-yl]oxy}piperidin-1-yl)-1-[4-(7H-pyrrolo[2,3-d]pyrimidin-4-yl)-1H-pyrazol-1-yl]cyclobutyl}acetonitrile], for which the JAK2/JAK1 is greater than 10.

As to `N#CC[C@]1(n2cc(-c3ncnc4[nH]ccc34)cn2)C[C@H](N2CCC(Oc3cc(CCO)cc(C(F)(F)F)n3)CC2)C1` [Compound 26, {trans-3-(4-{[4-(2-hydroxyethyl)-6-(trifluoromethyl)pyridin-2-yl]oxy}piperidin-1-yl)-1-[4-(7H-pyrrolo[2,3-d]pyrimidin-4-yl)-1H-pyrazol-1-yl]cyclobutyl}acetonitrile], the JAK2/JAK1 was greater than 10.

In the case of `C[C@@H](CO)NCc1cc(OC2CCN([C@H]3C[C@](CC#N)(n4cc(-c5ncnc6[nH]ccc56)cn4)C3)CC2)nc(C(F)(F)F)c1` [Compound 23, {trans-3-(4-{[4-({[(1S)-2-hydroxy-1-methylethyl]amino}methyl)-6-(trifluoromethyl)pyridin-2-yl]oxy}piperidin-1-yl)-1-[4-(7H-pyrrolo[2,3-d]pyrimidin-4-yl)-1H-pyrazol-1-yl]cyclobutyl}acetonitrile], the JAK2/JAK1 is greater than 10.

`N#CCC1(n2cc(-c3ncnc4[nH]ccc34)cn2)CN(C2CCN(C(=O)Nc3ccc(F)cc3C(F)(F)F)CC2)C1` [Compound 8, 4-{3-(Cyanomethyl)-3-[4-(7H-pyrrolo[2,3-d]pyrimidin-4-yl)-1H-pyrazol-1-yl]azetidin-1-yl}-N-[4-fluoro-2-(trifluoromethyl)phenyl]piperidine-1-carboxamide]: the JAK2/JAK1 was greater than 10.

With `C[C@@H](O)c1nc2cnc3ccsc3c2n1[C@H]1CC[C@H](CC#N)OC1` [Compound 1, ((2R,5S)-5-{2-[(1R)-1-hydroxyethyl]-1H-imidazo[4,5-d]thieno[3,2-b]pyridin-1-yl}tetrahydro-2H-pyran-2-yl)acetonitrile], the JAK2/JAK1 is greater than 10.

Consider `N#CC[C@]1(n2cc(-c3ncnc4[nH]ccc34)cn2)C[C@H](N2CCN(C(=O)c3ccnc(C(F)(F)F)n3)CC2)C1` [Compound 10, [trans-1-[4-[7H-pyrrolo[2,3-d]pyrimidin-4-yl)-1H-pyrazol-1-yl]-3-(4-{[2-(trifluoromethyl)pyrimidin-4-yl]carbonyl}piperazin-1-yl)cyclobutyl]acetonitrile], for which the JAK2/JAK1 is recorded as greater than 10.

With `N#CCC(CN1CCN(C(=O)c2ccc(C#N)cc2F)CC1)n1ccc(-c2ncnc3[nH]ccc23)c1` (centres unmarked) [Compound 6, 4-[(4-{3-cyano-2-[3-(7H-pyrrolo[2,3-d]pyrimidin-4-yl)-1H-pyrrol-1-yl]propyl}piperazin-1-yl)carbonyl]-3-fluorobenzonitrile], the JAK2/JAK1 is greater than 10.

In the case of `CCNCc1cc(O[C@H]2CC[C@@H](N3CC(CC#N)(n4cc(-c5ncnc6[nH]ccc56)cn4)C3)CC2)nc(C(F)(F)F)c1` [Compound 19, {1-(cis-4-{[4-[(ethylamino)methyl]-6-(trifluoromethyl)pyridin-2-yl]oxy}cyclohexyl)-3-[4-(7H-pyrrolo[2,3-d]pyrimidin-4-yl)-1H-pyrazol-1-yl]azetidin-3-yl}acetonitrile], the JAK2/JAK1 is recorded as greater than 10.

On to `N#CCC1(n2cc(-c3ncnc4[nH]ccc34)cn2)CN(C2CCN(C(=O)c3ccnc(C(F)(F)F)n3)CC2)C1` [Compound 9, [3-[4-(7H-pyrrolo[2,3-d]pyrimidin-4-yl)-1H-pyrazol-1-yl]-1-(1-{[2-(trifluoromethyl)pyrimidin-4-yl]carbonyl}piperidin-4-yl)azetidin-3-yl]acetonitrile], for which the JAK2/JAK1 is listed as greater than 10.

Regarding `N#CCC(CN1CCN(C(=O)c2ccc(C#N)cc2F)CC1)n1cc(-c2ncnc3[nH]ccc23)cn1` (centres unmarked) [Compound 5], the JAK2/JAK1 is listed as greater than 10.

Consider `N#CCC(C1CCN(c2cccc(Cl)n2)C1)n1cc(-c2ncnc3[nH]ccc23)cn1` (single isomer, unassigned) [Compound 3, 3-[1-(6-chloropyridin-2-yl)pyrrolidin-3-yl]-3-[4-(7H-pyrrolo[2,3-d]pyrimidin-4-yl)-1H-pyrazol-1-yl]propanenitrile], for which the JAK2/JAK1 is recorded as greater than 10.

`C[C@H](NC(=O)c1cc(F)c(N2CC(CC#N)(n3cc(-c4ncnc5[nH]ccc45)cn3)C2)cc1F)C(F)(F)F` [Compound 16, 4-{3-(cyanomethyl)-3-[4-(7H-pyrrolo[2,3-d]pyrimidin-4-yl)-1H-pyrazol-1-yl]azetidin-1-yl}-2,5-difluoro-N-[(1S)-2,2,2-trifluoro-1-methylethyl]benzamide]: the JAK2/JAK1 is listed as greater than 10.

For `C[C@H](O)CNCc1cc(OC2CCN([C@H]3C[C@](CC#N)(n4cc(-c5ncnc6[nH]ccc56)cn4)C3)CC2)nc(C(F)(F)F)c1` [Compound 25, {trans-3-(4-{[4-({[(2S)-2-hydroxypropyl]amino}methyl)-6-(trifluoromethyl)pyridin-2-yl]oxy}piperidin-1-yl)-1-[4-(7H-pyrrolo[2,3-d]pyrimidin-4-yl)-1H-pyrazol-1-yl]cyclobutyl}acetontrile], the JAK2/JAK1 is greater than 10.

Regarding `N[C@H]1CC[C@H](Cc2nc(-c3ccc(F)cc3)c3cnc(NCCCc4ccccc4)nn23)CC1` [Example 14, trans-7-((4-Aminocyclohexyl)methyl)-5-(4-fluorophenyl)-N-(3-phenylpropyl)imidazo[5,1-f][1,2,4]triazin-2-amine], the JAK2/JAK1 is reported as greater than 10.

A further assay has as its target c-Mer (Homo sapiens (Human), UniProt Q12866). In words: TAM Enzymatic Assay (HTRF), c-Mer. It is filed as biochemical. Conditions: 0.0625 nM c-Mer. (Time-resolved FRET reads energy transfer from a long-lived donor to a nearby acceptor.)
`N[C@H]1CC[C@H](Cc2nc(-c3ccc(F)cc3)c3cnc(NCCCc4ccccc4)nn23)CC1` [Example 14, trans-7-((4-Aminocyclohexyl)methyl)-5-(4-fluorophenyl)-N-(3-phenylpropyl)imidazo[5,1-f][1,2,4]triazin-2-amine] returned an IC50 of no more than 100 nM.

A further assay has as its target JAK1 (Homo sapiens (Human), UniProt P23458).
Experiment: not given
The note with it: 1 mM ATP; cited from earlier work.
Regarding `CCCCNc1ncc2c(-c3ccc(F)cc3)nc(C3CCC(N)CC3)n2n1` (centres unmarked) [Example 15, 7-(4-Aminocyclohexyl)-N-butyl-5-(4-fluorophenyl)imidazo[5,1-f][1,2,4]triazin-2-amine], the IC50 was less than 10 nM.

In the case of `N[C@H]1CC[C@H](Cc2nc(-c3ccc(F)cc3)c3cnc(NCCCc4ccccc4)nn23)CC1` [Example 14, trans-7-((4-Aminocyclohexyl)methyl)-5-(4-fluorophenyl)-N-(3-phenylpropyl)imidazo[5,1-f][1,2,4]triazin-2-amine], the IC50 is less than 10 nM.

For `CCCCNc1ncc2c(-c3ccc(F)cc3)nc(C[C@H]3CC[C@H](N)CC3)n2n1` [Example 13, trans-7-[(4-Aminocyclohexyl)methyl]-N-butyl-5-(4-fluorophenyl)imidazo[5,1-f][1,2,4]triazin-2-amine], the IC50 was less than 10 nM.

The target of a further assay is Tyro3 (Homo sapiens (Human), UniProt Q06418). In words: TAM Enzymatic Assay (HTRF), Tyro3. The note with it: 0.366 nM Tyro3, HTRF. The class given is biochemical.
Chain of Tyro3 (Q06418 41-890): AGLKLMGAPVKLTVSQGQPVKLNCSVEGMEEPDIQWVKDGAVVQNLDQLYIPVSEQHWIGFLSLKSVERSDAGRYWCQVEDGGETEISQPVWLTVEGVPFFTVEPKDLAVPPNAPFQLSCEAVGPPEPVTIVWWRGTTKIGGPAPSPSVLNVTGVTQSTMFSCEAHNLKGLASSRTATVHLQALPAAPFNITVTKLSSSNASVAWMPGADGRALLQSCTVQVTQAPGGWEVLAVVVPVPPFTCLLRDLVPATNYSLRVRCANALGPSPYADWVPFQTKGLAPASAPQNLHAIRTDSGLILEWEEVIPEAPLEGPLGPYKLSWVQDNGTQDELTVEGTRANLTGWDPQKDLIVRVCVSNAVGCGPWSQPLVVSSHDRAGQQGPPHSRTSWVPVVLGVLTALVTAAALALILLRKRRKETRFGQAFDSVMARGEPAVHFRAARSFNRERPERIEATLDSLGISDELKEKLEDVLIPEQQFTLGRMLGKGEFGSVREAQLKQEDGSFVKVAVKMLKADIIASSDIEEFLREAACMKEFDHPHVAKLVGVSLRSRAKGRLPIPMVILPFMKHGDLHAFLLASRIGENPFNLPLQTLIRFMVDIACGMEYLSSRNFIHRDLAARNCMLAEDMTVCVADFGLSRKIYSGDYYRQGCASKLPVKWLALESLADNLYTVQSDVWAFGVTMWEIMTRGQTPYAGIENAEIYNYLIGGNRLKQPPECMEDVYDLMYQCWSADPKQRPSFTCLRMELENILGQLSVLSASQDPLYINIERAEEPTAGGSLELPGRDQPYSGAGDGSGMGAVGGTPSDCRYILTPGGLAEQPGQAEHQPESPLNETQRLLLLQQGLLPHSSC
Method: The kinase assay buffer contained 50 mM HEPES, pH7.5, 10 mM MgCl2, 1 mM EGTA, 0.01% NP-40 and 2 mM DTT. 0.1 ul test compounds dissolved in DMSO were transferred from compound plates to white 384-well assay plates (Greiner [sequence] plates). […] 4 ul enzyme solution (or assay buffer for the enzyme blank) was added to the appropriate wells in each plate, and then 4 ul/well substrate solution was added to initiate the reaction. The plate was protected from light and incubated at room temperature for 60 min. […] The plate was incubated for 1 h at room temperature, and HTRF (homogenous time resolved fluorescence) signal was measured on a PHERAstar FS plate reader (BMG labtech). Percentage of inhibition was calculated for each concentration and IC50 value was generated from curve fitting with GraphPad Prism software.
For the molecule `N[C@H]1CC[C@H](Cc2nc(-c3ccc(F)cc3)c3cnc(NCCCc4ccccc4)nn23)CC1` [Example 14, trans-7-((4-Aminocyclohexyl)methyl)-5-(4-fluorophenyl)-N-(3-phenylpropyl)imidazo[5,1-f][1,2,4]triazin-2-amine], the IC50 is greater than 1000 nM.
